Test results from patent US10450378B2, “Cytotoxic and anti-mitotic compounds, and methods of using the same” (priority 2014, dated 2019).
Read-outs that look alike come from different tables or passages of the source.

Assays:
Jurkat cell line = experiment: Cytotoxicity of compounds of Formula I, Example 3 (CellTiter-Glo); format: cell-based, Human; conditions: for EC50: Homo sapiens, 72 h
Description: (§1) Compounds were tested on Jurkat and HCC1954 cell lines to assess their cytotoxicity. Compounds were titrated 1:3 starting at various concentrations (30 nM to 1000 nM). Control cytotoxin HTI-286 (see, e.g., U.S. Pat. No. 7,579,323) was also titrated 1:3 across starting with a 30 nM concentration. Plates were incubated for 3 days. Cell viability was quantified using 30 μL/well of 1× CellTiter-Glo reagent.
(§2) Each cell line was grown in its respective growth medium until seeding day. Cells were removed from their culture vessels and the resulting cell suspension was counted using the ViCell. Cells were then diluted in their growth medium to 25000/mL such that 100 μL/well=2500 cells/well. Each cell line was seeded in the inner 60 wells of 96-well black walled TC plates, outer wells filled with water. HCC1954 were seeded a day prior to assay set up. Cytotoxins were diluted as described below a 5× dose-response of each compound was prepared using RPMI+10% FBS in a deep-well 96-well plate. This “master” dilution plate was used for each cell line. 25 μL of the 5× dose responses was spiked into each cell line in triplicate. The plates were returned to the incubator and were incubated for 3 nights. After the 3 nights, cell viability was quantified using 30 μL/well of 1× CellTiter-glo reagent. After at least 10 minutes of incubation, the luminescence was measured using the SpectraMax (500 ms integration).

[1] = system: Human T-cell leukemia cell line Jurkat; experiment: Cellular cytotoxicity of compounds of Formula I, Example 3.1; format: cell-based; conditions: for EC50: Homo sapiens, Jurkat, read-out: EC50 (nM) Jurkat
Description: (§3) Compounds were tested on one or more of Human T-cell leukemia cell line Jurkat (ATCC: TIB-152); Human breast cancer cell lines HCC1954 (ATCC: CRL-2338) and JIMT-1 (DSMZ: ACC 589); Human Pancreatic cell line BxPC-3 (ATCC: CRL.1687), Human ovarian adenocarcinoma cell line SK-OV-3 (ATCC: HTB-77) and Human gastric carcinoma cell line NCI-N87 (ATCC: CRL. 5822); to assess their cytotoxicity.
(§4) Briefly, cells were obtained from commercial sources and cultured as described in the product sheet provided. Cells were removed from their culture vessels and the resulting cell suspension was counted using a ViCell (Beckman Coulter), then seeded at 25,000 cells/mL (2,500 cells/well) in Costar 3904 black walled, flat bottomed 96-well plates (cells were seeded in the inner 60 wells of 96-well TC plates, and outer edge wells filled with water). Adherent cell lines were incubated for one night at 37° C./5% CO2 atmosphere to allow the cells to attach to the microtiter plate surface, while suspension (Jurkat) cells were plated immediately before use. Cytotoxins were dissolved and serially diluted in dimethyl sulfoxide and then the solutions were added to complete growth medium at five-times the desired maximum final concentration. The cytotoxins were then titrated in growth medium, normally 1:3, over eight steps. A control with no test article present (growth medium alone) was included on each microtiter plate in sextuplicate. The prepared toxin titrations were added (25 μL/well) in triplicate to each cell line assayed. The cells and titrations were incubated at 37° C./5% CO2 for three nights (Jurkat) and five nights (all other cell lines). After the incubation, cell viability was measured using CellTiter-Glo® by adding 30 μL of prepared CellTiter-Glo® reagent to each assay well. The mixtures were incubated for at least twenty minutes in the dark prior to measuring emitted luminescence using a microplate luminometer (500 ms integration time). The collected relative luminescence units (RLU) were converted to % cytotoxicity using the growth medium alone control mentioned above (% Cytotoxicity=1-[well RLU/average medium alone control RLU]×100%).

Jurkat cells = experiment: Cell cycle arrest assay; format: cell-based, Human; conditions: 50 nM, 24 h, propidium iodide
Description: Jurkat cells (ATCC), cultured in RMPI-1640 media supplemented with 10% FBS, were obtained in logarithmic growth. 1 million cells/ml were seeded into a 12-well tissue-culture treated plate in a 950 μL, volume. Cells were treated with Compound 5 in 50 μL of growth media such that the final concentration of Compound 5 was 50 nM, control cells were given 50 μL of growth media alone. Cells were incubated for 24 h at 37° C., 5% CO2 in a humidified incubator. Following incubation, cells were thoroughly resuspended and transferred to 5 mL FACS tubes, and stored on ice. Two washes were performed by spinning cells down in a swinging-bucket centrifuge at 450×g for 4 min, resuspending in 1 mL ice-cold PBS. Cells were fixed through the addition of 3 mL ice-cold 100% ethanol in a dropwise fashion under vortex, and immediately stored at 4° C. for 1 h. During the 1 h incubation, the following staining solution was prepared in ice-cold PBS: 10 μg/ml propidium iodide, 10 U/ml RNAse 1f, and 0.05% Triton X-100. Following the 1 h fixation incubation, ethanol was removed by spinning cells as described above, and washing twice in 1 mL ice-cold PBS. Cells were resuspended in 500 μL of the above-mentioned staining solution, and incubated at room temperature for 1 h. […] Histograms were generated using FCS Express, plotting # of events against fluorescence in FL-3.

[2] = system: Human Pancreatic cell line BxPC-3; experiment: Cellular cytotoxicity of compounds of Formula I, Example 3.1; format: cell-based; conditions: five nights, CellTiter-Glo
Description: as §3, §4

[3] = system: Human breast cancer cell line JIMT-1; experiment: as above; format: cell-based; conditions: five nights, CellTiter-Glo
Description: as §3, §4

[4] = system: Human ovarian adenocarcinoma cell line SK-OV-3; experiment: as above; format: cell-based; conditions: five nights, CellTiter-Glo, read-out: EC50 (nM) SKOV-3
Description: as §3, §4

[5] = system: Human gastric carcinoma cell line NCI-N87; experiment: as above; format: cell-based; conditions: five nights, CellTiter-Glo
Description: as §3, §4

[6] = system: Human breast cancer cell line HCC1954; experiment: as above; format: cell-based; conditions: five nights, CellTiter-Glo, read-out: EC50 (nM) HCC-1954
Description: as §3, §4

HCC1954 cell line = experiment: Cytotoxicity of compounds of Formula I, Example 3 (CellTiter-Glo); format: cell-based; conditions: Homo sapiens, 72 h, 3 days incubation
Description: as §1, §2

[7] = 3 days incubation, CellTiter-Glo, read-out: EC50

Structure (SMILES): CC[C@H](C)[C@@H]([C@@H](CC(=O)N1CCC[C@H]1[C@H](OC)[C@@H](C)C(=O)N[C@@H](Cc1ccccc1)C(=O)NS(=O)(=O)c1ccc(NC(=O)C(F)(F)F)cc1)OC)N(C)C(=O)[C@@H](NC(=O)[C@H](C(C)C)N(C)C)C(C)C [Compound 10, (S)-2-((S)-2-(Dimethylamino)-3-methylbutanamido)-N-((3R,4S,5S)-3-methoxy-1-((S)-2-((1R,2R)-1-methoxy-2-methyl-3-oxo-3-((S)-1-oxo-3-phenyl-1-(4-(2,2,2-trifluoroacetamido)phenylsulfonamido)propan-2-ylamino)propyl)pyrrolidin-1-yl)-5-methyl-1-oxoheptan-4-yl)-N,3-dimethylbutanamide]
- EC50 (Jurkat cell line): 0.0453 µM
- EC50 [1]: 45.3 nM

Structure (SMILES): CC[C@H](C)[C@@H]([C@@H](CC(=O)N1CCC[C@H]1[C@H](OC)[C@@H](C)C(=O)N[C@@H](Cc1ccccc1)C(=O)NS(=O)(=O)Cc1ccc(NC(=O)C(F)(F)F)cc1)OC)N(C)C(=O)[C@@H](NC(=O)[C@H](C(C)C)N(C)C)C(C)C [Compound 13, (S)-2-((S)-2-(Dimethylamino)-3-methylbutanamido)-N-((3R,4S,5S)-3-methoxy-1-((S)-2-((1R,2R)-1-methoxy-2-methyl-3-oxo-3-((S)-1-oxo-3-phenyl-1-(4-(2,2,2-trifluoroacetamido)phenylmethylsulfonamido)propan-2-ylamino)propyl)pyrrolidin-1-yl)-5-methyl-1-oxoheptan-4-yl)-N,3-dimethylbutanamide]
- EC50 (Jurkat cell line): 0.0209 µM
- EC50 [1]: 20.9 nM

Structure (SMILES): CC[C@H](C)[C@@H]([C@@H](CC(=O)N1CCC[C@H]1[C@H](OC)[C@@H](C)C(=O)NS(=O)(=O)c1ccc(N)cc1)OC)N(C)C(=O)[C@@H](NC(=O)[C@H](C(C)C)N(C)C)C(C)C [Compound 5, (S)-N-((3R,4S,5S)-1-((S)-2-((1R,2R)-3-(4-Aminophenylsulfonamido)-1-methoxy-2-methyl-3-oxopropyl)pyrrolidin-1-yl)-3-methoxy-5-methyl-1-oxoheptan-4-yl)-2-((S)-2-(dimethylamino)-3-methylbutanamido)-N,3-dimethylbutanamide]
- Cell cycle phase (DNA content histograms) (Jurkat cells): pronounced shift towards G2/M phase
- EC50 (Jurkat cell line; [7]): 0.0168 µM
- EC50 ([1]; three nights, CellTiter-Glo): 13.6 nM
- EC50 [2]: 18.2 nM
- EC50 [3]: 9.3 nM
- EC50 [4]: 23.7 nM
- EC50 [5]: 12 nM
- EC50 [6]: 8.9 nM
- EC50 (HCC1954 cell line): 0.0089 µM

Structure (SMILES): CC[C@H](C)[C@@H]([C@@H](CC(=O)N1CCC[C@H]1[C@H](OC)[C@@H](C)C(=O)N[C@@H](Cc1ccccc1)C(=O)NS(=O)(=O)c1ccc(N)cc1)OC)N(C)C(=O)[C@@H](NC(=O)[C@H](C(C)C)N(C)C)C(C)C [Compound 11, (S)-N-((3R,4S,5S)-1-((S)-2-((1R,2R)-3-((S)-1-(4-Aminophenylsulfonamido)-1-oxo-3-phenylpropan-2-ylamino)-1-methoxy-2-methyl-3-oxopropyl)pyrrolidin-1-yl)-3-methoxy-5-methyl-1-oxoheptan-4-yl)-2-((S)-2-(dimethylamino)-3-methylbutanamido)-N,3-dimethylbutanamide]
- EC50 (Jurkat cell line; [7]): 0.052 µM
- EC50 ([1]; three nights, CellTiter-Glo): 52 nM

Structure (SMILES): CC[C@H](C)[C@@H]([C@@H](CC(=O)N1CCC[C@H]1[C@H](OC)[C@@H](C)C(=O)NS(=O)(=O)Cc1ccc(NC(=O)C(F)(F)F)cc1)OC)N(C)C(=O)[C@@H](NC(=O)[C@H](C(C)C)N(C)C)C(C)C [Compound 7, (S)-2-((S)-2-(Dimethylamino)-3-methylbutanamido)-N-((3R,4S,5S)-3-methoxy-1-((S)-2-((1R,2R)-1-methoxy-2-methyl-3-oxo-3-((4-(2,2,2-trifluoroacetamido)phenyl)methylsulfonamido)propyl)pyrrolidin-1-yl)-5-methyl-1-oxoheptan-4-yl)-N,3-dimethylbutanamide]
- EC50 (Jurkat cell line; [7]): 0.0299 µM
- EC50 ([1]; three nights, CellTiter-Glo): 29.9 nM

Structure (SMILES): CN[C@H](C(=O)N[C@H](C(=O)N(C)[C@H](/C=C(\C)C(=O)O)C(C)C)C(C)(C)C)C(C)(C)c1ccccc1 [HTI-286, reference compound]
- Killing by control cytotoxin (Jurkat cell line; titrated 1:3 starting with 30 nM): successfully killed Jurkats at an expected concentration
- Killing by control cytotoxin ([1]; stated for all cell lines of Example 3.1): successfully killed all cell lines at an expected concentration

Structure (SMILES): CC[C@H](C)[C@@H]([C@@H](CC(=O)N1CCC[C@H]1[C@H](OC)[C@@H](C)C(=O)NS(=O)(=O)c1ccc(NC(=O)C(F)(F)F)cc1)OC)N(C)C(=O)[C@@H](NC(=O)[C@H](C(C)C)N(C)C)C(C)C [Compound 4, (S)-2-((S)-2-(Dimethylamino)-3-methylbutanamido)-N-((3R,4S,5S)-3-methoxy-1-((S)-2-((1R,2R)-1-methoxy-2-methyl-3-oxo-3-(4-(2,2,2-trifluoroacetamido)phenylsulfonamido)propyl)pyrrolidin-1-yl)-5-methyl-1-oxoheptan-4-yl)-N,3-dimethylbutanamide]
- EC50 (Jurkat cell line; [7]): 0.0181 µM
- EC50 ([1]; three nights, CellTiter-Glo): 18.1 nM
